According to publication PMC8040948 (Journal of medicinal chemistry, 2020):
Converted amounts (≈) assume the structure as drawn. Read-outs that look alike come from different tables or passages of the source.

Legend:
[1] = target: T1, CYP1A2 (Homo sapiens, UniProt P05177); assay: CYP1A2 inhibition
T1 sequence (P05177 1-516): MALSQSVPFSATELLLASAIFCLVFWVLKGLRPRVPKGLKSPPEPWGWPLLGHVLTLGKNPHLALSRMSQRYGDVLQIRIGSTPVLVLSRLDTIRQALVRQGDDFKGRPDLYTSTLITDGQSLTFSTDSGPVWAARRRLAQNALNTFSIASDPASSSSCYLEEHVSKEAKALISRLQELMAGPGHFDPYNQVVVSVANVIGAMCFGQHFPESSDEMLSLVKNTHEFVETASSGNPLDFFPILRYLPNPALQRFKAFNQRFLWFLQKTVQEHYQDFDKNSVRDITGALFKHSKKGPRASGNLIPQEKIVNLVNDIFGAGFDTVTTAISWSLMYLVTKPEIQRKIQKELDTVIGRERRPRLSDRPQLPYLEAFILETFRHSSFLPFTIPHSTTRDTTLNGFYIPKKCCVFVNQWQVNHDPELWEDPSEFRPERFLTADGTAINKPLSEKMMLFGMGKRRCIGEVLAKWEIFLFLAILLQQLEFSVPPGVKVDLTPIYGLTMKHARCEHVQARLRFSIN

[2] = target: T2, CYP3A4 (Homo sapiens, UniProt P08684); assay: CYP3A4 inhibition
T2 sequence (P08684 whole entry): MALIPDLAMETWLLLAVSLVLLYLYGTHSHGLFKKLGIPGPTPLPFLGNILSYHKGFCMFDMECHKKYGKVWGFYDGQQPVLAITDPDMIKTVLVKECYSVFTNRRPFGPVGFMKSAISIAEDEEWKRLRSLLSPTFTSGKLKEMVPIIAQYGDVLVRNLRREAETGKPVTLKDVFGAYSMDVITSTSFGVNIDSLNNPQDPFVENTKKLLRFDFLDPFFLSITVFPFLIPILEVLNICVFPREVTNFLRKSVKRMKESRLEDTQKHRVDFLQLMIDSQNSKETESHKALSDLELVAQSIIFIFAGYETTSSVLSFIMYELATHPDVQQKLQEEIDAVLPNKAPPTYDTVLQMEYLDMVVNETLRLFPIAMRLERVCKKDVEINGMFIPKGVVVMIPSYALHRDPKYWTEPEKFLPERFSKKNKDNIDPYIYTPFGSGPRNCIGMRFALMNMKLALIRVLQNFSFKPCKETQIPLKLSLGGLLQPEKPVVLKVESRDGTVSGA

[3] = Aqueous solubility, pION method; details: Table 5, pION method
[4] = Pharmacokinetics in the rat, ip and iv
[5] = Plasma protein binding in three species
[6] = target: CYP2C9 (Homo sapiens, UniProt P11712); details: read-out: CYP2C9 (IC50); ref Yu et al.[23]; cited from earlier work
Chain of CYP2C9 (P11712 whole entry): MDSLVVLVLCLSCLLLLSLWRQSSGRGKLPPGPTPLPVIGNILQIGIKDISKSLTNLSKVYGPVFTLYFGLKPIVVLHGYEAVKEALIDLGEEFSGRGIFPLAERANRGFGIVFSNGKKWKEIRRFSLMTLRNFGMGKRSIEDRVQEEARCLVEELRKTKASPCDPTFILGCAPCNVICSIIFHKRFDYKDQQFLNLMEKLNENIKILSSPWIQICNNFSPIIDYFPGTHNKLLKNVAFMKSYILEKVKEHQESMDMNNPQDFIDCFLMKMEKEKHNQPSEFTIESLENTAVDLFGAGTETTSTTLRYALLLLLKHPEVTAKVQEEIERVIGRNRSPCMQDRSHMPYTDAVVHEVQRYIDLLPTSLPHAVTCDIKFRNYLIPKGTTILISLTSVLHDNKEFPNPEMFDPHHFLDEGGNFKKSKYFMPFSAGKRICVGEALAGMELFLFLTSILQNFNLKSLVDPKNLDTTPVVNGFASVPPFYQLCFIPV

[7] = target: T2, CYP3A4; details: read-out: CYP3A4 (IC50); ref Yu et al.[23]; cited from earlier work
[8] = human, rat, and mouse plasma, ref Yu et al.[23]; cited from earlier work
[9] = human (h) microsomes; ref Yu et al.[23]; cited from earlier work
[10] = ref Yu et al.[23]; cited from earlier work
[11] = ref Yu et al.[23]; cited from earlier work; remark: listed apart in the source

Compound	IC50 [1]	IC50 [2]	solubility ([3]; pH 4, aqueous solubility (pH 4.0, μg/mL), pH 4.0, mean ± SD)	solubility ([3]; pH 7.4, aqueous solubility (pH 7.4, μg/mL), pH 7.4, mean ± SD)	time at which maximal plasma concentration was reached [4]	plasma concentration at the 12 h time point ([4]; highest dose (10 mg/kg), 12 h)	plasma protein binding [5]	IC50 [6]	IC50 [7]	plasma stability (three species) (% remaining at 120 min) [8]	microsomal stability (t1/2, min) [9]	simulated intestinal fluid (% remaining at 120 min) [10]	simulated gastric fluid (% remaining at 120 min) [11]
O=C(O)c1cc(-c2ccc(C34CCN(CC3)CC4)cc2)cc(-n2cc(-c3ccc(C(F)(F)F)cc3)nn2)c1 [Compound 18, 4′-(Quinuclidin-4-yl)-5-(4-(4-(trifluoromethyl)phenyl)-1H-1,2,3-triazol-1-yl)-[1,1′-biphenyl]-3-carboxylic Acid]	14.1 µM	9.94 µM	14.4 ± 0.3 µg/mL (≈ 27.8 µM)	< 0.1 µg/mL	3 to 4 h	200 to 400 ng/kg	high	–	–	–	–	–	–
NC(=O)c1ccc(-c2cc(C(=O)O)cc(-n3cc(-c4ccc(C(F)(F)F)cc4)nn3)c2)cc1 [Compound 22]	–	–	–	–	–	–	–	> 30 µM	> 30 µM	94–100%	145 min	100%	100%
